# Marks after values point to notes of the source that are not given here.
# How the values were obtained:
# Assay type in all cases: in vivo
# [1] = test system: Blumeria graminis f. sp. tritici; assay: Test F: preventive spray on wheat seedlings, visual disease rating (wheat powdery mildew)
# Method in brief: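 Visual ratings (0–100% control relative to controls) taken 8 days after spore-dust inoculation at 20° C. Inoculation followed one day after a protective run-off spray of 200 ppm suspension, equal to 800 g/ha, or 40 ppm where flagged, made in acetone/water with 250 ppm surfactant.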
# Septoria nodorum = assay: Test C: preventive spray on wheat seedlings, visual disease rating (Septoria glume blotch)
# Excerpt: (§1) General protocol for preparing test suspensions for Tests A-F: the test compounds were first dissolved in acetone in an amount equal to 3% of the final volume and then suspended at the desired concentration (in ppm) in acetone and purified water (50/50 mix by volume) containing 250 ppm of the surfactant Trem® 014 (polyhydric alcohol esters). The resulting test suspensions were then used in Tests A-F. Spraying a 200 ppm test suspension to the point of run-off on the test plants was the equivalent of a rate of 800 g/ha. Unless otherwise indicated, the rating values indicate a 200 ppm test suspension was used. (An asterisk “*” next to the rating value indicates a 40 ppm test suspension was used.)
# The test suspension was sprayed to the point of run-off on wheat seedlings. The following day the seedlings were inoculated with a spore suspension of Septoria nodorum (the causal agent of Septoria glume blotch) and incubated in a saturated atmosphere at 24° C. for 48 h, and then moved to a growth chamber at 20° C. for 6 days, after which time visual disease ratings were made.
# (§2) Results for Tests A-F are given in Table A. In the Table, a rating of 100 indicates 100% disease control and a rating of 0 indicates no disease control (relative to the controls). A dash (-) indicates no test results. An asterisk “*” next to the rating value indicates a 40 ppm test suspension was used.
# [2] = test system: Puccinia recondite f. sp. tritici; assay: Test E2: preventive spray on wheat seedlings, visual disease rating (wheat leaf rust)
# Method in brief: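 Wheat seedlings were inoculated with leaf rust spores one day after a run-off spray of compound at 200 ppm (asterisk: 40 ppm) in 50/50 acetone/water with 250 ppm Trem 014. Incubation: 24 h saturated humidity, 20 °C; then 7 days growth chamber, 20 °C. Disease control scored visually, 0–100% relative to controls.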
# Septoria tritici = assay: Test D: preventive spray on wheat seedlings, visual disease rating (wheat leaf blotch)
# Method in brief: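 Protection was scored visually on a 0–100% disease-control scale versus controls, 19 days after plants were moved to 20 °C following 48 h of 24 °C saturated humidity. Spore inoculation with S. tritici took place one day after a preventive run-off spray, usually at 200 ppm (800 g/ha) and at 40 ppm where asterisked.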
# Botrytis cinerea = assay: Test A: preventive spray on tomato seedlings, visual disease rating (tomato Botrytis)
# Method in brief: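 Preventive test: Botrytis cinerea spores applied one day after run-off spraying at 200 ppm (≈800 g/ha), or 40 ppm where asterisked. Incubation 48 h at 20 °C in saturated air, then 3 days at 24 °C; disease scored visually from 0 (no control) to 100 (complete control) versus untreated.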
# Alternaria solani = assay: Test B: preventive spray on tomato seedlings, visual disease rating (tomato early blight)
# Excerpt: as §1
# The test suspension was sprayed to the point of run-off on tomato seedlings. The following day the seedlings were inoculated with a spore suspension of Alternaria solani (the causal agent of tomato early blight) and incubated in a saturated atmosphere at 27° C. for 48 h, and then moved to a growth chamber at 20° C. for 5 days, after which time visual disease ratings were made.
# as §2
# [3] = test system: Puccinia recondite f. sp. tritici; assay: Test E1: curative spray on wheat seedlings after inoculation, visual disease rating (wheat leaf rust)
# Excerpt: as §1
# Wheat seedlings were inoculated with a spore suspension of Puccinia recondite f. sp. tritici (the causal agent of wheat leaf rust) and incubated in a saturated atmosphere at 20° C. for 24 h, and then moved to a growth chamber at 20° C. for 2 days. After 2 days, the test suspension was sprayed to the point of run-off on the wheat seedlings, and then the seedlings were moved back to the growth chamber at 20° C. for 6 days. Upon removal, visual disease ratings were made.
# as §2
# [4] = no asterisk: standard test suspension, not 40 ppm
# [5] = no asterisk: standard test suspension, not 40 ppm, 100 = 100% disease control, 0 = none
# [6] = asterisk: 40 ppm test suspension
smiles,measurement,setting,value
Cc1nn(C)c(-c2c(F)cccc2Cl)c1C(O)c1ccc(F)cc1Br (stereo not drawn) [compound 37],Test F rating (% disease control),[1]; [4],100%
same,Test C rating (% disease control),Septoria nodorum; [4],100%
same,Test E2 rating (% disease control),[2]; [4],100%
same,Test D rating (% disease control),Septoria tritici; [4],100%
same,Test A rating (% disease control),Botrytis cinerea; [5],100%
same,Test B rating (% disease control),Alternaria solani; [4],99%
Cc1nn(C)c(-c2c(Cl)cccc2Cl)c1C(O)c1ccc(F)cc1F (stereo not drawn) [compound 74],Test F rating (% disease control),[1]; [4],98%
same,Test C rating (% disease control),Septoria nodorum; [4],92%
same,Test E2 rating (% disease control),[2]; [4],99%
same,Test E1 rating (% disease control),[3]; [4],0%
same,Test D rating (% disease control),Septoria tritici; [4],99%
same,Test B rating (% disease control),Alternaria solani; [4],100%
Cc1nn(C)c(-c2ccccc2I)c1C(O)c1ccc(F)cc1Br (stereo not drawn) [compound 88],Test F rating (% disease control),[1]; [4],89%
same,Test C rating (% disease control),Septoria nodorum; [4],0%
same,Test E2 rating (% disease control),[2]; [4],68%
same,Test E1 rating (% disease control),[3]; [4],0%
same,Test D rating (% disease control),Septoria tritici; [4],99%
same,Test B rating (% disease control),Alternaria solani; [4],0%
"Cc1nn(C)c(-c2ccc(F)cc2F)c1C(O)c1ccc(F)cc1F (stereo not drawn) [Compound 72, α-(2,4-difluorophenyl)-5-(2,4-difluorophenyl)-1,3-dimethyl-1H-pyrazole-4-methanol]",pest or weed control at 40 ppm,"[1]; Blumeria graminis, 192 h, asterisk: 40 ppm test suspension",98%
same,pest or weed control at 40 ppm,"Septoria nodorum; Parastagonospora nodorum, 192 h, asterisk: 40 ppm test suspension",0%
same,pest or weed control at 40 ppm,"[2]; 192 h, asterisk: 40 ppm test suspension",96%
same,pest or weed control at 40 ppm,"[3]; 144 h, asterisk: 40 ppm test suspension",18%
same,pest or weed control at 40 ppm,"Septoria tritici; Zymoseptoria tritici, 504 h, asterisk: 40 ppm test suspension",100%
same,pest or weed control at 40 ppm,"Alternaria solani; Alternaria solani, 168 h, asterisk: 40 ppm test suspension",53%
Cc1nn(C)c(-c2ccc(F)cc2Cl)c1Nc1ccc(F)cc1F [compound 49],Test F rating (% disease control),[1]; [6],87* %
same,Test C rating (% disease control),Septoria nodorum; [6],0* %
same,Test E2 rating (% disease control),[2]; [6],74* %
same,Test D rating (% disease control),Septoria tritici; [6],96* %
same,Test A rating (% disease control),Botrytis cinerea; [6],100* %
same,Test B rating (% disease control),Alternaria solani; [6],0* %
Cc1nn(C)c(-c2ccc(F)cc2Br)c1C(=O)c1ccc(F)cc1F [compound 73],Test F rating (% disease control),[1]; [6],34* %
same,Test C rating (% disease control),Septoria nodorum; [6],0* %
same,Test E2 rating (% disease control),[2]; [6],0* %
same,Test E1 rating (% disease control),[3]; [6],0* %
same,Test D rating (% disease control),Septoria tritici; [6],14* %
same,Test B rating (% disease control),Alternaria solani; [6],60* %
Cn1nc(Br)c(C(=O)c2ccc(F)cc2F)c1-c1ccc(F)cc1Cl [compound 48],Test F rating (% disease control),[1]; [4],0%
same,Test C rating (% disease control),Septoria nodorum; [4],0%
same,Test E2 rating (% disease control),[2]; [4],0%
same,Test D rating (% disease control),Septoria tritici; [4],99%
same,Test A rating (% disease control),Botrytis cinerea; [5],26%
same,Test B rating (% disease control),Alternaria solani; [4],0%
Cc1nn(C)c(-c2c(Cl)cccc2Cl)c1C(O)c1ccc(Cl)cc1 (stereo not drawn) [compound 77],Test F rating (% disease control),[1]; [4],89%
same,Test C rating (% disease control),Septoria nodorum; [4],0%
same,Test E2 rating (% disease control),[2]; [4],79%
same,Test E1 rating (% disease control),[3]; [4],0%
same,Test D rating (% disease control),Septoria tritici; [4],99%
same,Test B rating (% disease control),Alternaria solani; [4],93%
Cc1nn(C)c(-c2c(Cl)cncc2Cl)c1C(=O)c1ccc(F)cc1Cl [compound 96],Test F rating (% disease control),[1]; [6],26* %
same,Test C rating (% disease control),Septoria nodorum; [6],0* %
same,Test E2 rating (% disease control),[2]; [6],0* %
same,Test D rating (% disease control),Septoria tritici; [6],0* %
same,Test A rating (% disease control),Botrytis cinerea; [6],60* %
same,Test B rating (% disease control),Alternaria solani; [6],0* %
Cc1nn(C)c(-c2ccccc2I)c1C(=O)c1ccc(F)cc1Br [compound 81],Test F rating (% disease control),[1]; [4],99%
same,Test C rating (% disease control),Septoria nodorum; [4],0%
same,Test E2 rating (% disease control),[2]; [4],0%
same,Test D rating (% disease control),Septoria tritici; [4],0%
same,Test A rating (% disease control),Botrytis cinerea; [5],54%
same,Test B rating (% disease control),Alternaria solani; [4],46%

# Reference: patent US8754115B2, “Fungicidal pyrazoles” (E I du Pont de Nemours and Company, priority 2010, dated 2014)
